According to patent publication US20090105292A9, “Glucocorticoid Receptor Modulator Compounds and Methods” (LIGAND PHARMACEUTICALS INCORPORATED, priority 2004, published 2009):

Biological target: T1, human glucocorticoid receptor protein (GR) (Homo sapiens, UniProt P04150)
T1 construct: made in house; host or cells: Spodoptera frugiperda Sf21 insect cells (baculovirus)
T1 sequence (P04150 1-777): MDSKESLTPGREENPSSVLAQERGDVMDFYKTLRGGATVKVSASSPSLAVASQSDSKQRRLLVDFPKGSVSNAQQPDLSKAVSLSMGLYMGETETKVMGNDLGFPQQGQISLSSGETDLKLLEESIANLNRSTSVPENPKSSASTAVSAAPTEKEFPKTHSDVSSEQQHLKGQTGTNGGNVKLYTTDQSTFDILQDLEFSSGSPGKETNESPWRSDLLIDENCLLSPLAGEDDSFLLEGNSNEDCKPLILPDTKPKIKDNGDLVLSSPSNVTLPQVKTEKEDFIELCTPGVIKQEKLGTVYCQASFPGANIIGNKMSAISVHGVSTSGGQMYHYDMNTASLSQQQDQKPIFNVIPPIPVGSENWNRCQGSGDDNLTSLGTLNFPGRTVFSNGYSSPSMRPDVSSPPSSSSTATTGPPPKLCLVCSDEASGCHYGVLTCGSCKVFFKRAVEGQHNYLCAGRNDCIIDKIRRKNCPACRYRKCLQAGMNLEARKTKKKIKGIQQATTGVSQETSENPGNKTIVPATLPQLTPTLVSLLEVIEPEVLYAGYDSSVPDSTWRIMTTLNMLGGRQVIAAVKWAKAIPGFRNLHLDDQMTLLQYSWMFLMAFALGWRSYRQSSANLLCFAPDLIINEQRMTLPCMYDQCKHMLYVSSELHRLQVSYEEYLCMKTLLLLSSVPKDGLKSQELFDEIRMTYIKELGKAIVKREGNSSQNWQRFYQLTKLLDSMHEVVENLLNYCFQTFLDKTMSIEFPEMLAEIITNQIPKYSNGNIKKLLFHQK
Experiment: Glucocorticoid receptor binding assay ([3H]dexamethasone competition, GR lysate)
Settings: not given
Protocol: A baculovirus expression plasmid containing cDNA encoding the human glucocorticoid receptor protein (GR) was prepared using standard techniques. […] That expression plasmid was co-transfected together with wild type Autographa californica multiple nuclear polyhedrosis virus DNA into Spodopter frugiperda-21 (Sf-21) cells to generate recombinant virus containing GR cDNA. See e.g., O'Reilly, D. R., Miller, L. K., Luckow, V. A., Regulation of expression of a baculovirus ecdysteroid UDP glucosyltransferase gene. […] That recombinant virus containing GR cDNA was collected.
A suspension culture of uninfected Sf21 cells was grown to a density of 1.2×10^6 cells/ml and then infected with the recombinant virus containing GR cDNA at a multiplicity of infection of 2. Those infected Sf21 cells were incubated for 48 hours and then collected by centrifugation at 1000×g for 10 minutes at 4° C. The resulting cell pellets were resuspended in lysis buffer (50 mM Potassium Phosphate buffer, pH 7.0, 10 mM Monothioglycerol, 5 mM DTT, 20 mM Sodium Molybdate, 1 mM PMSF, 1 μg/mL aprotinin, and 10 μg/mL leupeptin) and incubated for 15 minutes on ice. Those resuspended cell pellets were homogenized using a Dounce homogenizer and a B pestle. A volume of 2 M KCl was added to the homogenized cell pellets to a final concentration of 0.4 M. The resulting GR lysates were centrifuged at 100,000×g for 60 min at 4° C. and stored for use in binding assays.
Binding assay samples were prepared in separate mini-tubes in a 96-well format at 4° C. Each binding assay sample was prepared in a volume of 250 μL of Assay Buffer (10% glycerol, 25 mM sodium phosphate, 10 mM potassium fluoride, 10 mM sodium molybdate, 0.25 mM CHAPS, 2 mM DTT and 1 mM EDTA, (adjusted to pH 7.5)) containing 50 μg of GR lysate; 2-4 nM of [^3H]dexamethasone at 84 Ci/mmol; and either a reference compound or a test compound. […] Each reference compound and test compound was assayed at varying concentrations, ranging from 0 to 10^−5 M. Each concentration of each reference compound and each test compound was assayed in triplicate. The assay samples were incubated for 16 hours at 4° C.
The assay samples were then centrifuged and the supernatants were discarded. The resulting pellets were washed twice with assay buffer lacking DTT. Radioactivity in counts per minute (CPM) of each washed pellet was determined by liquid scintillation counter (MicroBeta™, Wallach).
Specific binding for a particular sample was calculated using the equation: (Sample CPM)−(Average Non-specific CPM)
Average Non-specific CPM was defined as the amount of radioactivity from samples containing an excess (i.e. 1000 nM) of unlabeled dexamethasone. […] Ki values were determined using the Cheng-Prusoff equation using a previously determined Kd value for dexamethasone: Ki=IC50/(1+[L]/Kd)
[L]=concentration of labeled dexamethasone
Kd=dissociation constant of labeled dexamethasone

| Ki | Compound |
| --- | --- |
| 1 to 2 nM | COc1c(O)ccc2c1-c1ccc3c(c1/C(=C/c1cccc(C(F)(F)F)c1)O2)C(C)=CC(C)(C)N3 [Compound 11, (Z)-5-(3′-trifluoromethylbenzylidene)-1,2-dihydro-9-hydroxy-10-methoxy-2,2,4-trimethyl-5H-chromeno[3,4-f]quinoline] |
| < 1 nM | COc1c(O)ccc2c1-c1ccc3c(c1/C(=C/c1ccccc1F)O2)C(C)=CC(C)(C)N3 [Compound 12, (Z)-5-(2′-fluorobenzylidene)-1,2-dihydro-9-hydroxy-10-methoxy-2,2,4-trimethyl-5H-chromeno[3,4-f]quinoline] |
| > 3 nM | COc1c(O)ccc2c1-c1ccc3c(c1/C(=C/c1cccc(OC(F)(F)F)c1)O2)C(C)=CC(C)(C)N3 [Compound 22, (Z)-5-(3′-trifluoromethoxybenzylidene)-1,2-dihydro-9-hydroxy-10-methoxy-2,2,4-trimethyl-5H-chromeno[3,4-f]quinoline] |

Same assay, conditions: competition with 2-4 nM [3H]dexamethasone, 16 hours at 4° C., Cheng-Prusoff; read-out: Ki

| Compound | Ki |
| --- | --- |
| COc1c(O)ccc2c1-c1ccc3c(c1/C(=C/c1sccc1C(O)C(F)(F)F)O2)C(C)=CC(C)(C)N3 (racemic) [Compound 202, (±)-(Z)-5-(2′-(3′-(1″-Hydroxy-2″,2″,2″-trifluoroethyl)thienylmethylidene))1,2-dihydro-9-hydroxy-10-methoxy-2,2,4-trimethyl-5H-chromeno[3,4-f]quinoline] | 1 to 2 nM |
| COc1c(O)ccc2c1-c1ccc3c(c1/C(=C/c1cc(Cl)ccc1Cl)O2)C(C)=CC(C)(C)N3 [Compound 14, (Z)-5-(2′,5′-dichlorobenzylidene)-1,2-dihydro-9-hydroxy-10-methoxy-2,2,4-trimethyl-5H-chromeno[3,4-f]quinoline] | 2 to 3 nM |
| COc1cccc(/C=C2\Oc3ccc(O)c(OC)c3-c3ccc4c(c32)C(C)=CC(C)(C)N4)c1 [Compound 15, (Z)-5-(3′-methoxybenzylidene)-1,2-dihydro-9-hydroxy-10-methoxy-2,2,4-trimethyl-5H-chromeno[3,4-f]quinoline] | < 1 nM |
| COc1c(O)ccc2c1-c1ccc3c(c1/C(=C/c1cccc(C(F)(F)F)c1F)O2)C(C)=CC(C)(C)N3 [Compound 29, (Z)-5-(2′-fluoro-3′-trifluoromethylbenzylidene)-1,2-dihydro-9-hydroxy-10-methoxy-2,2,4-trimethyl-5H-chromeno[3,4-f]quinoline] | 2 to 3 nM |
| COc1c(O)ccc2c1-c1ccc3c(c1/C(=C/c1cc(F)ccc1C)O2)C(C)=CC(C)(C)N3 [Compound 37, (Z)-5-(5′-fluoro-2′-methylbenzylidene)-1,2-dihydro-9-hydroxy-10-methoxy-2,2,4-trimethyl-5H-chromeno[3,4-f]quinoline] | < 1 nM |
| C=Cc1ccc(/C=C2\Oc3ccc(O)c(OC)c3-c3ccc4c(c32)C(C)=CC(C)(C)N4)cc1 [Compound 63, (Z)-5-(4′-vinylbenzylidene)-1,2-dihydro-9-hydroxy-10-methoxy-2,2,4-trimethyl-5H-chromeno[3,4-f]quinoline] | 1 to 2 nM |
| COc1c(O)ccc2c1-c1ccc3c(c1/C(=C/c1ccc4c(c1)OCO4)O2)C(C)=CC(C)(C)N3 [Compound 67, (Z)-5-(3′,4′-methylenedioxybenzylidene)-1,2-dihydro-9-hydroxy-10-methoxy-2,2,4-trimethyl-5H-chromeno[3,4-f]quinoline] | < 1 nM |
| COc1c(O)ccc2c1-c1ccc3c(c1/C(=C/c1cccc(OCCF)c1)O2)C(C)=CC(C)(C)N3 [Compound 86, (Z)-5-(3′-(2″-fluoroethoxy)benzylidene)-1,2-dihydro-9-hydroxy-10-methoxy-2,2,4-trimethyl-5H-chromeno[3,4-f]quinoline] | 1 to 2 nM |
| COc1c(O)ccc2c1-c1ccc3c(c1/C(=C/c1ccccc1C(=O)N1CCCC1)O2)C(C)=CC(C)(C)N3 [Compound 90, (Z)-5-(2′-(pyrrolidinecarbonyl)benzylidene)-1,2-dihydro-9-hydroxy-10-methoxy-2,2,4-trimethyl-5H-chromeno[3,4-f]quinoline] | < 1 nM |
| COc1c(O)ccc2c1-c1ccc3c(c1/C(=C/c1ccc(F)cc1S(=O)(=O)N(C)C)O2)C(C)=CC(C)(C)N3 [Compound 103, (Z)-5-(2′-dimethylaminosulphonyl-4′-fluorobenzylidene)-1,2-dihydro-9-hydroxy-10-methoxy-2,2,4-trimethyl-5H-chromeno[3,4-f]quinoline] | 1 to 2 nM |
| COc1c(O)ccc2c1-c1ccc3c(c1/C(=C/c1ccccc1C#N)O2)C(C)=CC(C)(C)N3 [Compound 107, (Z)-5-(2′-cyanobenzylidene)-1,2-dihydro-9-hydroxy-10-methoxy-2,2,4-trimethyl-5H-chromeno[3,4-f]quinoline] | < 1 nM |
| COc1c(O)ccc2c1-c1ccc3c(c1/C(=C/c1cccc4ccccc14)O2)C(C)=CC(C)(C)N3 [Compound 111, (Z)-5-(1′-naphthylmethylidene)-1,2-dihydro-9-hydroxy-10-methoxy-2,2,4-trimethyl-5H-chromeno[3,4-f]quinoline] | > 3 nM |

Further lines, results first:

| Ki | Compound |
| --- | --- |
| 1 to 2 nM | COc1c(O)ccc2c1-c1ccc3c(c1/C(=C/c1sccc1C(C)O)O2)C(C)=CC(C)(C)N3 (racemic) [Compound 171, (±)-(Z)-5-(2′-(3′-(1″-Hydroxyethyl)thienylmethylidene))1,2-dihydro-9-hydroxy-10-methoxy-2,2,4-trimethyl-5H-chromeno[3,4-f]quinoline] |
| 1 to 2 nM | C=CCC(O)c1ccsc1C=C1Oc2ccc(O)c(OC)c2-c2ccc3c(c21)C(C)=CC(C)(C)N3 (single isomer, unassigned; (+)) [Compound 200, (+)-(Z)-5-(2′-(3′-(1″-Hydroxybut-3″-enyl)thienylmethylidene))1,2-dihydro-9-hydroxy-10-methoxy-2,2,4-trimethyl-5H-chromeno[3,4-f]quinoline] |
| 1 to 2 nM | C=CCC(O)c1ccsc1C=C1Oc2ccc(O)c(OC)c2-c2ccc3c(c21)C(C)=CC(C)(C)N3 (single isomer, unassigned; (-)) [Compound 201, (−)-(Z)-5-(2′-(3′-(1″-Hydroxybut-3″-enyl)thienylmethylidene))1,2-dihydro-9-hydroxy-10-methoxy-2,2,4-trimethyl-5H-chromeno[3,4-f]quinoline] |
| < 1 nM | CCN(CC)C(=O)c1ccccc1/C=C1\Oc2ccc(O)c(OC)c2-c2ccc3c(c21)C(C)=CC(C)(C)N3 [Compound 75, (Z)-5-(2′-diethylaminocarbonylbenzylidene)-1,2-dihydro-9-hydroxy-10-methoxy-2,2,4-trimethyl-5H-chromeno[3,4-f]quinoline] |
| 1 to 2 nM | COc1c(O)ccc2c1-c1ccc3c(c1/C(=C/c1sccc1C(=O)N(C)C)O2)C(C)=CC(C)(C)N3 [Compound 132, (Z)-5-(2′-(3′-(dimethylaminocarbonyl)thienylmethylidene))-1,2-dihydro-9-hydroxy-10-methoxy-2,2,4-trimethyl-5H-chromeno[3,4-f]quinoline] |
| < 1 nM | CCN(C)C(=O)c1ccsc1/C=C1\Oc2ccc(O)c(OC)c2-c2ccc3c(c21)C(C)=CC(C)(C)N3 [Compound 134, (Z)-5-(2′-(3′-(ethylmethylaminocarbonyl)thienylmethylidene))-1,2-dihydro-9-hydroxy-10-methoxy-2,2,4-trimethyl-5H-chromeno[3,4-f]quinoline] |
